Literature values, collected in patent US7655753B2, “Conjugate” (PhotoBiotics Limited, priority 2001, dated 2010).

Legend:
[1] = tested on: Barrett's oesophagus cancer; conditions: clinical PDT, systemic administration
[2] = tested on: Basal cell cancer of skin; conditions: clinical PDT, topical administration
[3] = tested on: Chest wall recurrence in breast cancer; conditions: clinical PDT
Oral cancer = conditions: clinical PDT, over 5-53 months
Bladder cancer = conditions: clinical PDT
Barrett's mucosal cancer = conditions: clinical PDT

In the case of `NCC(=O)CCC(=O)O` [ALA, 5-aminolaevulanic acid], the High-grade dysplasia outcome [1] is given as “eradicated in all patients” and the complete response [2] is given as 90% complete response.
In the case of `Oc1cccc(-c2c3nc(c(-c4cccc(O)c4)c4ccc([nH]4)c(-c4cccc(O)c4)c4nc(c(-c5cccc(O)c5)c5ccc2[nH]5)CC4)C=C3)c1` [Foscan, meta-tetrahydroxyphenyl chlorin], the “skin photosensitivity (duration)” value (in vivo) is listed as “about 2 weeks”.
For Dihematoporphyrin ether, the complete response [3] is given as 20% complete response,, the partial response [3] is given as 45% partial response and the complete response (Oral cancer) is given as 87% complete response.
For Hematoporphyrin derivative, the “alive after 5 years” value (Bladder cancer) is listed as 30% alive after 5 years and the complete response (Bladder cancer) is listed as 74% complete response,.
In the case of porfimer sodium, the “conversion to normal epithelium” value (Barrett's mucosal cancer) is listed as 75% conversion to, the tumour outcome (Barrett's mucosal cancer) is listed as “tumours eliminated” and the “persistence in the body” value (leading to skin photosensitivity) is listed as “weeks”.
